Results taken from PMC10599482 (Chemical Science, 2023).

Test: CD spectroscopy, percent helicity
Type: physicochemical
Details: 50.0% TFE aqueous solution, 0.1 mg/mL peptide, 20 °C, calculated from [θ]222

For CC[C@H](C)[C@H](NC(=O)[C@H](C)NC(=O)[C@H](CCC(=O)O)NC(=O)[C@H](CCC(=O)O)NC(=O)[C@H](CC(C)C)NC(=O)[C@H](CCCCN)NC(=O)[C@H](CCCCN)NC(=O)[C@H](CCSC)NC(=O)[C@H](CCC(=O)O)NC(=O)[C@H](Cc1ccc(O)cc1)NC(=O)[C@H](CCC(=O)O)NC(=O)[C@H](CC(C)C)NC(=O)[C@H](CC(=O)O)NC(=O)[C@H](CC(C)C)NC(=O)[C@H](Cc1ccccc1)NC(=O)[C@@H](NC(=O)[C@@H](NC(=O)[C@H](CC(N)=O)NC(=O)[C@@H](NC(=O)[C@H](CCC(N)=O)NC(=O)[C@H](CC(=O)O)NC(=O)[C@H](CC(C)C)NC(=O)[C@H](CO)NC(C)=O)[C@@H](C)CC)C(C)C)[C@@H](C)O)C(=O)N[C@@H](CCCCN)C(=O)N[C@@H](CCCCN)C(=O)N[C@@H](CC(C)C)C(=O)N[C@@H](CCC(=O)O)C(=O)N[C@@H](CCC(=O)O)C(=O)N[C@@H](CO)C(=O)N[C@@H](Cc1ccc(O)cc1)C(=O)N[C@H](C(=O)N[C@@H](CC(=O)O)C(=O)N[C@@H](CC(C)C)C(=O)N[C@@H](CCCCN)C(=O)N[C@@H](CCC(=O)O)C(=O)N[C@@H](CC(C)C)C(N)=O)[C@@H](C)CC [EK1], the “α-Helicity (%)” value was 13.6%.
